# According to ChEMBL document CHEMBL1130616, “Synthesis and biological activity of glutamic acid derivatives” (Bioorg Med Chem Lett, 1998):
# Columns and labels:
# Assay type in all cases: functional
# [1] = organism: Rattus norvegicus; assay: Effective concentration by measuring IP1 accumulation using rat fore brain synaptoneurosomes
# [2] = organism: Rattus norvegicus; assay: Effective concentration by measuring IP2 accumulation using rat fore brain synaptoneurosomes
# [3] = organism: Rattus norvegicus; assay: Emax by measuring IP1 accumulation using rat fore brain synaptoneurosomes
# [4] = organism: Rattus norvegicus; assay: Emax by measuring IP2 accumulation using rat fore brain synaptoneurosomes
Structure (SMILES),EC50 [1] [µM],EC50 [2] [µM],Emax [3] [%],Emax [4] [%]
N[C@@H](CC(C=O)CCCCN1C(=O)c2ccccc2C1=O)C(=O)O.N[C@@]1(C(=O)O)CC[C@@H](C(=O)O)C1 (some centres undefined),37,79,264,543
N[C@@H](CC(C=O)CCCCN1C(=O)c2ccccc2C1=O)C(=O)O.N[C@@H](Cn1oc(=O)[nH]c1=O)C(=O)O (some centres undefined),0.14,0.27,216,359
C[C@@](N)(C(=O)O)c1ccc(C(=O)O)cc1.N[C@@]1(C(=O)O)CC[C@@H](C(=O)O)C1,109,224,269,643
C[C@@](N)(C(=O)O)c1ccc(C(=O)O)cc1.N[C@@H](Cn1oc(=O)[nH]c1=O)C(=O)O,0.63,1.34,225,358
N[C@@H](Cn1oc(=O)[nH]c1=O)C(=O)O [QUISQUALATE],0.1,0.32,240,524
N[C@@]1(C(=O)O)CC[C@@H](C(=O)O)C1,17,38,284,700
